# In patent US20080096832A1, “Method for Improving the Pharmacokinetics of an NNRTI” (Boehringer Ingelheim International GmbH, priority 2002, published 2008):
# Where two headings read alike, the source gives them in different places.
# Assays:
# [1] = target: CYP3A4 (Homo sapiens, UniProt P08684); experiment: Metabolism of the compound of the formula I by the cytochromes P450; format: in vitro ADME; settings: result in words
# [2] = Pharmacokinetic drug-drug interaction of the compound of the formula I and ritonavir in healthy volunteers (single dose, alone and with RTV); format: in vivo, human; set-up: CL/F: unit not given here; settings: for AUC(0-t) / Cmax / Tmax / half-life / AUC: human, plasma
# Procedure: A single-dose, single treatment group was studied to assess the pharmacokinetic drug-drug interaction potential between the protease inhibitors the compound of the formula I and ritonavir. The compound of the formula I was administered as a solution containing 5 or 12.5 mg of the compound of the formula I, with excipients, and ritonavir was administered as the 100-mg marketed product (Norvir) 12 hours preceding and co-administration with the compound of the formula I . Baseline pharmacokinetic data for the compound of the formula I was obtained as single doses up through 100 mg. The co-administered drugs were compared with baseline data. The study was conducted in healthy volunteers Pharmacokinetic analyses were based on the results obtained in these subjects. Pharmacokinetic parameters such as AUC, Cmax, tmax, oral clearance, and terminal half-life were determined using standard noncompartmental techniques.
# [3] = 12.5 mg oral single dose alone, mean
# [4] = 25 mg oral single dose alone, mean
# [5] = 50 mg oral single dose alone, mean
# [6] = 75 mg oral single dose alone, mean
# [7] = 100 mg oral single dose alone, mean
# [8] = oral, 5 mg solution + RTV 100 mg, mean
# [9] = oral, 5 mg, 5 mg alone (no RTV), mean
# [10] = oral, 12.5 mg solution + RTV 100 mg, mean
# [11] = oral, 12.5 mg, 12.5 mg alone (no RTV), mean (Table 1)
# [12] = po, 12.5 mg, 12.5 mg oral single dose alone, mean (Table 2)
# [13] = po, 25 mg, 25 mg oral single dose alone, mean
# [14] = po, 50 mg, 50 mg oral single dose alone, mean
# [15] = po, 75 mg, 75 mg oral single dose alone, mean
# [16] = po, 100 mg, 100 mg oral single dose alone, mean
# [17] = with ritonavir 100 mg versus alone
# Chain of CYP3A4 (P08684 whole entry): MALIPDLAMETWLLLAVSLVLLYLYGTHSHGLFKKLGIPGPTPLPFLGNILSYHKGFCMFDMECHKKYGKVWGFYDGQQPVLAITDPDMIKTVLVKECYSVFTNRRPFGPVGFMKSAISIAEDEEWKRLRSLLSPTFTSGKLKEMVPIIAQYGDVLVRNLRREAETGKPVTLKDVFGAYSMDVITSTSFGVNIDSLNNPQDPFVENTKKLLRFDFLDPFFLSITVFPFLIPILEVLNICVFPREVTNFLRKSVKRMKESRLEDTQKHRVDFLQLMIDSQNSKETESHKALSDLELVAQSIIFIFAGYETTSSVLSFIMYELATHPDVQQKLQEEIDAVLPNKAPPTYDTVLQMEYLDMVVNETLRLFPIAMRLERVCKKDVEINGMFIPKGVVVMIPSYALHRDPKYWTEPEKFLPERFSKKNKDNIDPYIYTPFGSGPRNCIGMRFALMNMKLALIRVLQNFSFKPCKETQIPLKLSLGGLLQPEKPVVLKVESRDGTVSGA
compound,measurement,setting,value
"CCN1c2ncc(CCOc3cc[n+]([O-])c4ccccc34)cc2C(=O)N(C)c2cccnc21 [the compound of the formula I, 5,11-Dihydro-11-ethyl-5-methyl-8-{2-{(1-oxido-4-quinolinyl)oxy}ethyl}-6H-dipyrido[3,2-b:2′,3′-e] [1,4]diazepin-6-one]","metabolism by the cytochromes P450, especially the CYP3A4 isoform",[1],surprisingly rapid metabolism
same,% Renally eliminated as unchanged drug,[2]; [3],0.21%
same,CL/F,[2]; [3],243495.99
same,% Renally eliminated as unchanged drug,[2]; [4],0.41%
same,CL/F,[2]; [4],200752.61
same,% Renally eliminated as unchanged drug,[2]; [5],0.48%
same,CL/F,[2]; [5],124815.56
same,% Renally eliminated as unchanged drug,[2]; [6],0.60%
same,CL/F,[2]; [6],263277.68
same,% Renally eliminated as unchanged drug,[2]; [7],0.81%
same,CL/F,[2]; [7],75634.54
same,AUC(0-t),"[2]; oral, 5 mg solution + RTV 100 mg (12 h before and co-administered), mean",0.578 µg·h/mL
same,Cmax,[2]; [8],0.0228 µg/mL
same,Tmax,[2]; [8],4 h
same,half-life,"[2]; oral, 5 mg solution + RTV 100 mg, mean, read-out: half-life (converted)",15.3 h
same,AUC(0-t),[2]; [9],0.0136 µg·h/mL
same,Cmax,[2]; [9],0.00364 µg/mL
same,Tmax,[2]; [9],1.5 h
same,AUC(0-t),"[2]; oral, 12.5 mg solution + RTV 100 mg (12 h before and co-administered), mean",1.7 µg·h/mL
same,Cmax,[2]; [10],0.0741 µg/mL
same,Tmax,[2]; [10],3.59 h
same,half-life,"[2]; oral, 12.5 mg solution + RTV 100 mg, mean, read-out: half-life (converted)",15.9 h
same,AUC(0-t),[2]; [11],0.0571 µg·h/mL
same,Cmax,[2]; [11],0.0148 µg/mL
same,Tmax,[2]; [11],1 h
same,half-life,"[2]; oral, 12.5 mg, 12.5 mg alone (no RTV), mean (Table 1), read-out: half-life (converted)",4.1 h
same,half-life,"[2]; oral, co-administration with ritonavir 100 mg, read-out: half-life upon co-administration with ritonavir (converted)",15 h
same,half-life,"[2]; oral, without ritonavir, single dose range of 1-100 mg, read-out: half-life without ritonavir (converted)",~2 h
same,Cmax,[2]; [12],0.0148 µg/mL
same,Tmax,[2]; [12],1 h
same,half-life,"[2]; po, 12.5 mg, 12.5 mg oral single dose alone, mean (Table 2), read-out: Half-life (converted)",4.1 h
same,Cmax,[2]; [13],0.0416 µg/mL
same,Tmax,[2]; [13],0.83 h
same,half-life,"[2]; po, 25 mg, 25 mg oral single dose alone, mean, read-out: Half-life (converted)",3.44 h
same,Cmax,[2]; [14],0.164 µg/mL
same,Tmax,[2]; [14],0.67 h
same,half-life,"[2]; po, 50 mg, 50 mg oral single dose alone, mean, read-out: Half-life (converted)",2.5 h
same,Cmax,[2]; [15],0.348 µg/mL
same,Tmax,[2]; [15],0.67 h
same,half-life,"[2]; po, 75 mg, 75 mg oral single dose alone, mean, read-out: Half-life (converted)",2.21 h
same,Cmax,[2]; [16],0.937 µg/mL
same,Tmax,[2]; [16],0.55 h
same,half-life,"[2]; po, 100 mg, 100 mg oral single dose alone, mean, read-out: Half-life (converted)",1.86 h
same,AUC,"[2]; 12.5 mg oral single dose alone, mean (Table 2)",0.0631 µg·h/mL
same,AUC,[2]; [4],0.139 µg·h/mL
same,AUC,[2]; [5],0.437 µg·h/mL
same,AUC,[2]; [6],0.817 µg·h/mL
same,AUC,[2]; [7],1.39 µg·h/mL
same,increase of AUC (plasma concentrations as measured by area under the curve) in the presence of ritonavir,[2]; [17],~40 fold
same,increase of mean Cmax in the presence of ritonavir,[2]; [17],5-6 fold
